Measured values from US8377967B2, “Piperidine derivative” (Nippon Zoki Pharmaceutical Co., Ltd., priority 2008, dated 2013).

How the values were obtained:
[1] = test system: histamine-induced vascular hyperpermeability reaction; experiment: Rat histamine-induced vascular hyperpermeability reaction (in vivo antihistamine action); conditions: SD male rat, oral administration 1 hour before intracutaneous histamine, leaked Evans Blue pigment
[2] = biological target: human histamine H1 receptor (Homo sapiens, UniProt P35367); experiment: In vitro human histamine H1 receptor binding experiment ([3H]pyrilamine); conditions: HEK293A cells stably expressing human histamine H1 receptor, [3H]pyrilamine 3 nmol/L, room temperature 60 minutes
Chain of human histamine H1 receptor (P35367 whole entry): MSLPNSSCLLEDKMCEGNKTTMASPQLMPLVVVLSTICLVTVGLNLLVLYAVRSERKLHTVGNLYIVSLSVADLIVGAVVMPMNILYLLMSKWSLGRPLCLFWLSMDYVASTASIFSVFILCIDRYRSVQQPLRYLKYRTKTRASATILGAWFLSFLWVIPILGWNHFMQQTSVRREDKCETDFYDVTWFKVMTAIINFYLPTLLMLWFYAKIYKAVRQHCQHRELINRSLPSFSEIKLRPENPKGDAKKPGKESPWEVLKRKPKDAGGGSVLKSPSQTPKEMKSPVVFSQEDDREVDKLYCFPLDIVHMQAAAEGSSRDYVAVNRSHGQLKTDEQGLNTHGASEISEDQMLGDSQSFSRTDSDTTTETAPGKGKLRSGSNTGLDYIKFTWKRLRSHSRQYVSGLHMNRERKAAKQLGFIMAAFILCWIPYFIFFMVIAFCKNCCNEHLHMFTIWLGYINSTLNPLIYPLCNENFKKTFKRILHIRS
How it was run: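 HEK293A cells stably expressing human H1 receptor (3×10^5 cells/well) incubated 60 min at room temperature with test substance and 3 nmol/L [3H]pyrilamine in 50 mmol/L Tris-HCl pH 7.5, 0.1% BSA. Filtration and scintillation counting; nonspecific binding with 30 μmol/L pyrilamine.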

cerebral H1 receptor = biological target: T1, cerebral H1 receptor (Mus musculus, UniProt P70174); experiment: Murine cerebral H1 receptor occupying content (ex vivo); type: in vivo; conditions: for ED50: ICR male mouse, oral administration, brain excised after 1 hour, 3H-pyrilamine binding in brain homogenate, larger = lower brain transfer, read-out: ID50 (the source's name); for ID50 (mg/kg)/ ED50 (mg/kg): ID50 of cerebral receptor binding test (Table 20) divided by ED50 of vascular hyperpermeability test (Table 19)
T1 construct: the entire brain, except for cerebellum and medulla oblongatae, was rapidly excised; from tissue; host or cells: brain homogenate (without cerebellum and medulla oblongata) of orally dosed ICR male mice
T1 sequence (P70174 whole entry): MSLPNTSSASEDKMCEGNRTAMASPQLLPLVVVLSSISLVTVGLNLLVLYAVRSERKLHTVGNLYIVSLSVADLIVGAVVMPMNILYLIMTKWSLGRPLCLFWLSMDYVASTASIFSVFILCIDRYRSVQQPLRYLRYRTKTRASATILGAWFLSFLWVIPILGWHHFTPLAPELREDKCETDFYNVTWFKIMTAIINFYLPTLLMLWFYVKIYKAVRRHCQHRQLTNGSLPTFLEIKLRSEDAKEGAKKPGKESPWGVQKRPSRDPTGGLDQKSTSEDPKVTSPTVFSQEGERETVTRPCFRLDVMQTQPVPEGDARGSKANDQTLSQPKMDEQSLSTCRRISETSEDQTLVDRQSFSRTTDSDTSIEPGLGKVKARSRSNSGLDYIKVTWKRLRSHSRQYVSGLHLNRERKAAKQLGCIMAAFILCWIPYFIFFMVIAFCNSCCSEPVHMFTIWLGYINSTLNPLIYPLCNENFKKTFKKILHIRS

Compound | ED50 [1] | IC50 [2] | ED50 (cerebral H1 receptor) | ID50 (mg/kg)/ ED50 (mg/kg) (cerebral H1 receptor) | melting point
CCOC(=O)Cc1ccc2c(c1)C(=C1CCN(C)CC1)c1sccc1CO2.Cl [Compound 140, Ethyl[4-(1-methylpiperidin-4-ylidene)-4,10-dihydro-9-oxa-3-thiabenzo[f]azulen-6-yl]acetate hydrochloride] | ~0.01 mg/kg | 10.1 nM | 3.5 mg/kg | 350.0 | 
CCN1CCC(=C2c3cc(CCCC(=O)O)ccc3OCc3ccsc32)CC1 [Compound 142, 4-[4-(1-Ethylpiperidin-4-ylidene)-4,10-dihydro-9-oxa-3-thiabenzo[f]azulen-6-yl]butyric acid] | ~0.3 mg/kg | 90.9 nM | 11.9 mg/kg | 39.7 | 
CCOC(=O)C=Cc1cc2c(s1)CCc1ccccc1C2=C1CCNCC1.Cl [Compound 145, Ethyl 3-(4-piperidin-4-ylidene-9,10-dihydro-4H-1-thiabenzo[f]azulen-2-yl)acrylate hydrochloride] | 0.29 mg/kg | 68.6 nM | > 200 mg/kg | >689.7 | 
CN1CCC(=C2c3cc(CC(=O)O)ccc3CCc3sccc32)CC1 [Compound 151, [4-(1-Methylpiperidin-4-ylidene)-9,10-dihydro-4H-1-thiabenzo[f]azulen-6-yl]acetic acid] | < 0.1 mg/kg | 93.6 nM | 6.36 mg/kg | >63.6 | 
COC(=O)COc1ccc2c(c1)C(=C1CCN(C)CC1)c1sccc1CO2.Cl [Compound 165, Methyl[4-(1-methylpiperidin-4-ylidene)-4,10-dihydro-9-oxa-3-thiabenzo[f]azulen-6-yloxy]acetate hydrochloride] | 0.107 mg/kg | 11.8 nM | 23 mg/kg | 215.0 | 
COC(=O)Cc1ccc2c(c1)C(=C1CCN(CCCC(C)=O)CC1)c1sccc1CO2.Cl [Compound 169, Methyl {4-[1-(4-oxopentyl)piperidin-4-ylidene]-4,10-dihydro-9-oxa-3-thiabenzo[f]azulen-6-yl}acetate hydrochloride] | 0.241 mg/kg | 8.32 nM | 12.5 mg/kg | 51.9 | 
COC(=O)CSc1ccc2c(c1)C(=C1CCN(C)CC1)c1sccc1CO2.Cl [Compound 171, Methyl[4-(1-methylpiperidin-4-ylidene)-4,10-dihydro-9-oxa-3-thiabenzo[f]azulen-6-ylsulfanyl]acetate hydrochloride] | 0.073 mg/kg | 4.16 nM | 29.6 mg/kg | 405.5 | 
CN1CCC(=C2c3cc(SCC(=O)O)ccc3OCc3ccsc32)CC1 [Compound 172, [4-(1-Methylpiperidin-4-ylidene)-4,10-dihydro-9-oxa-3-thiabenzo[f]azulen-6-ylsulfanyl]acetic acid] | 0.117 mg/kg | 22.2 nM | 28 mg/kg | 239.3 | 
CCOC(=O)CCN1CCC(=C2c3cc(CC(=O)OC)ccc3OCc3ccsc32)CC1.Cl [Compound 173, Ethyl 3-[4-(6-methoxycarbonylmethyl-10H-9-oxa-3-thiabenzo[f]azulen-4-ylidene)piperidin-1-yl]propionate hydrochloride] | 1.43 mg/kg | 1.26 nM | 87.1 mg/kg | 60.9 | 
COC(=O)Cc1ccc2c(c1)C(=C1CCN(CCNS(C)(=O)=O)CC1)c1sccc1CO2.Cl [Compound 177, Methyl {4-[1-(2-methanesulfonylaminoethyl)piperidin-4-ylidene]-4,10-dihydro-9-oxa-3-thiabenzo[f]azulen-6-yl}acetate hydrochloride] | 0.302 mg/kg | 7.12 nM | 125 mg/kg | 412.6 | 
COC(=O)Cc1ccc2c(c1)C(=C1CCN(CCC(C)=O)CC1)c1sccc1CO2.Cl [Compound 191, Methyl {4-[1-(3-oxobutyl)piperidin-4-ylidene]-4,10-dihydro-9-oxa-3-thiabenzo[f]azulen-6-yl}acetate hydrochloride] | 0.597 mg/kg | 4.72 nM | 79.2 mg/kg | 132.7 | 
COC(=O)CSc1ccc2c(c1)C(=C1CCNCC1)c1sccc1CO2.Cl [Compound 197, Methyl (4-piperidin-4-ylidene-4,10-dihydro-9-oxa-3-thiabenzo[f]azulen-6-ylsulfanyl)acetate hydrochloride] | 0.19 mg/kg | 80.9 nM | > 200 mg/kg | >1052.6 | 
COC(=O)Cc1ccc2c(c1)C(=C1CCN(CCCSC)CC1)c1sccc1CO2.Cl [Compound 198, Methyl {4-[1-(3-methylsulfanylpropyl)piperidin-4-ylidene]-4,10-dihydro-9-oxa-3-thiabenzo[f]azulen-6-yl}acetate hydrochloride] | ~0.3 mg/kg | 0.59 nM | 22.1 mg/kg | 73.7 | 
COC(=O)Cc1ccc2c(c1)C(=C1CCN(CCSC)CC1)c1sccc1CO2.Cl [Compound 200, Methyl {4-[1-(2-methylsulfanylethyl)piperidin-4-ylidene]-4,10-dihydro-9-oxa-3-thiabenzo[f]azulen-6-yl}acetate hydrochloride] | ~0.3 mg/kg | 7.83 nM | 53.4 mg/kg | 178.0 | 
CN1CCC(=C2c3ccccc3CCc3sc(Br)cc32)CC1 [Compound 212, 4-(2-Bromo-9,10-dihydro-1-thiabenzo[f]azulen-4-ylidene)-1-methylpiperidine] |  |  |  |  | 141 to 142 °C
